Assays:
[1] = tested on: patient-derived xenograft of ovarian cancer (Ov10584); test: Anti-tumor efficacy of NOV202 alone and in combination with olaparib in patient-derived xenograft of ovarian cancer (Example 1); format: in vivo; settings: for T/C (tumor/control) value: NMRI:nu/nu mice, Ov10584 s.c., once a day for 14 days (days 8-22), combination same dosage and schedule
Description: A Study of Anti-Tumor Efficacy of NOV202 Alone and in Combination with Olaparib in a Patient-Derived Xenograft of Ovarian Cancer (Ov10584)
NMRI:nu/nu female (Janvier) mice (8 weeks old) were used as follows: 4 animals in the vehicle group, 4 animals in NOV202 group, Olaparib group and in the combination group of NOV202 and olaparib, respectively. NOV202 was synthesized as described in WO 2012/127032. Olaparib was purchased from LC Laboratories. The patient-derived xenograft Ov10584 was used at passage number 7. All mice received tissue fragments of 2×2 mm subcutaneously at day 0, and tumors were allowed to reach palpable sizes of 118 mm^3 (mean) (the study day 8) prior to start the treatments. NOV202 group was administered PO at a dose 30 mg/kg and olaparib group was administered PO at a dose 100 mg/kg. The combination of NOV202 and olaparib group had the same dosage and schedule as in monotherapy. NOV202 was given in the morning (5 ml/kg) and olaparib in the afternoon (10 ml/kg). All three groups were administered 14 days once a day (days 8-22). The tumor volumes and body weights of animals were measured at regular intervals (day 7, 9, 13, 15, 19, 22, 27, all groups, and continued to measure the combination group day 29, 33, 36, 40, 43, 47, 50, 54, 57).

[2] = tested on: patient-derived xenograft Ov10584; test: Anti-tumor efficacy of NOV202 with olaparib vs. plinabulin with olaparib in patient-derived xenograft of ovarian cancer (Example 2); format: in vivo; settings: NMRI:nu/nu mice, Ov10584 s.c.; NOV202 30 mg/kg PO and olaparib 100 mg/kg PO once a day days 6-19; plinabulin 7.5 mg/kg i.p. days 1, 4, 8, 11, 15; combinations same dosage and schedule
Description: A Study of Anti-Tumor Efficacy of Combination of NOV202 with Olaparib Vs. Combination Plinabulin with Olaparib in a Patient-Derived Xenograft of Ovarian Cancer ([…])
NMRI:nu/nu female (Janvier) mice (8 weeks old) were used as follows: 4 animals in the vehicle group, 4 animals in NOV202 group, olaparib group, plinabulin group, in the combination group of NOV202 and Olaparib, and in the combination group of plinabulin and olaparib, respectively. NOV202 was synthesized as described in WO 2012/127032. Olaparib was purchased from LC Laboratories, and plinabulin was purchased from Sellechem. The patient-derived xenograft Ov10584 was used at passage number 4. All mice received tissue fragments of 2×2 mm subcutaneously into the left flank at day 0, and tumors were allowed to reach palpable sizes of 108 mm^3 (mean) (the study day 6) prior to start the treatments. NOV202 group was administered PO at a dose 30 mg/kg and olaparib group was administered PO at a dose 100 mg/kg, and plinabulin was administered i.p. at a dose 7.5 mg/kg. The combination of NOV202 and olaparib group had the same dosage and schedule as in monotherapy, NOV202 was given in the morning (5 ml/kg) and olaparib in the afternoon (10 ml/kg). The combination of plinabulin and olaparib group had also the same dosage and schedule as in monotherapy. NOV202 and olaparib was administered 14 days once a day (days 6-19), and plinabulin was administered days 1, 4, 8, 11, 15 once a day. The tumor volumes and body weights of animals were measured at regular intervals (day 6, 7, 9, 12, 14, 16, 19, 23, 26 and 29), all groups.

[3] = tested on: human OC xenograft model; test: In vivo efficacy study in a human OC xenograft model
Description: Development of the tumour vasculature system is essential to tumour growth and metastatic spread of malignant cells. The rationale behind using vasculature targeting agents in anti-cancer therapy is that the cancer cells will be deprived of essential nutrients and oxygen supply for their growth and spread, thereby improving treatment outcome.

[4] = tested on: ovarian cancer (OC) cell line A2780; test: Anti-proliferative activity in human cancer cell lines; format: cell-based; settings: A2780 cells
Description: (§1) Compounds of Formula I, including NOV202, exerts its action by inhibition of tubulin polymerization and thereby the assembly of microtubule structures, which cause a cell cycle arrest and cell death via apoptosis. […] The A2780/Adr multidrug resistant OC cell line overexpresses the P-glycoprotein efflux transporters which confer multidrug resistance.

[5] = tested on: A2780/Adr multidrug resistant OC cell line; test: Activity in multidrug resistant OC cells; format: cell-based, human; settings: A2780/Adr overexpresses P-glycoprotein efflux transporters
Description: as §1

[6] = NOV202 30 mg/kg PO, olaparib 100 mg/kg PO

Row | SMILES | T/C (tumor/control) value [1, 6] [%] | tolerability ([1]; daily treatment for 14 days, NOV202 30 mg/kg PO, olaparib 100 mg/kg PO) | body weight loss ([1]; one day after treatment stop, 30 mg/kg NOV202 daily for 14 days, mice recovered soon) [%] | T/C (tumor/control) value [2] [%] | suppression of tumour growth ([3]; human OC xenograft, similar to paclitaxel in this model) | tolerability ([3]; oral gavage over a period of 20 days) | anti-proliferative activity [4] | effectiveness in multidrug resistant versus isogenic non-resistant OC cells [5]
1 | COc1ccc2[nH]cc(CCNc3nccc(Nc4cccc5c4ccn5C)n3)c2c1 [NOV202, N^2-[2-(5-methoxy-1H-indol-3-yl)ethyl]-N^4-(1-methyl-1H-indol-4-yl)pyrimidine-2,4-diamine] | 37 | well tolerated | 6 | 32 | up to 80% | well tolerated | very potent | as effective in multidrug resistant OC cells as in the isogenic (drug sensitive variant) non-resistant OC cells
2 | O=C(c1cc(Cc2n[nH]c(=O)c3ccccc23)ccc1F)N1CCN(C(=O)C2CC2)CC1 [olaparib, 4-(3-{[4-(cyclopropylcarbonyl)piperazin-1-yl]carbonyl}-4-fluorobenzyl)phthalazin-1(2H)-one, reference compound] | 20 | – | – | 45 | – | – | – | –
3 | CC(C)(C)c1[nH]cnc1/C=c1\[nH]c(=O)/c(=C/c2ccccc2)[nH]c1=O [plinabulin, (3Z,6Z)-3-Benzylidene-6-{[5-(2-methyl-2-propanyl)-1H-imidazol-4-yl]methylene}-2,5-piperazinedione] | – | – | – | 58 | – | – | – | –

Reference: patent US11590130B2, “Combinations of a tubulin polymerization inhibitor and a poly (ADP-ribose) polymerase (PARP) inhibitor for use in the treatment of cancer” (NOVIGA RESEARCH AB, priority 2018, dated 2023)
